Assay results published in patent US10253023B2, “Heteroaryl compounds as BTK inhibitors and uses thereof” (Merck Patent GmbH, priority 2014, dated 2019).

Biological target: T1, BTK C481S (Homo sapiens, UniProt Q06187, C481S)
T1 construct: His-TEV-hsBTK(328-659)(C481S) from the Merck Serono Protein Purification Laboratory; His (N); TEV (protease cleavage site) (N)
Test: Assay B: Microfluidic Off-Chip Mobility Shift Assay against BTK C481S enzyme
Type: biochemical
Settings: His-TEV-hsBTK(328-659)(C481S), 90 min, 25° C
Description: Assay B: Microfluidic Off-Chip Mobility Shift Assay Protocol for Potency Assessment Against BTK C481S Enzyme The protocol below describes a microfluidic, off-chip mobility shift kinase assay to measure inherent potency of compounds against BTK C481S enzyme. The mechanics of the assay platform are described by the vendor (PerkinElmer, Hopkinton, Mass.) on their website at the following URL: […].com. Briefly, 2.5× stocks of His-TEV-hsBTK(328-659)(C481S) from the Merck Serono Protein Purification Laboratory in Darmstadt, Germany (PCS, […]/234), 1.6×ATP and appropriate […] peptide substrate (FITC-AHA-[…]-NH2; Tufts University Core Facility custom synthesis) were prepared in kinase reaction buffer consisting of 25 mM MgCl2, 0.015% Brij-35 (30%), 100 mM HEPES, pH 7.5, and 10 mM DTT. […] Terminated reactions were monitored at -2 PSI, -3000 V/-700 Volts in a LabChip 3000 plate reader from Caliper Life Sciences, a PerkinElmer Company (Hopkinton, Mass.), and the activity was quantified by laser-induced fluorescence measuring the charge/mass difference between substrate and product resulting from peptide phosphorylation. IC50 and efficacy were determined by plotting log [Inhibitor] vs. % Activity in GeneData Screener (Basel, Switzerland).

T1 sequence (Q06187 328-659 C481S): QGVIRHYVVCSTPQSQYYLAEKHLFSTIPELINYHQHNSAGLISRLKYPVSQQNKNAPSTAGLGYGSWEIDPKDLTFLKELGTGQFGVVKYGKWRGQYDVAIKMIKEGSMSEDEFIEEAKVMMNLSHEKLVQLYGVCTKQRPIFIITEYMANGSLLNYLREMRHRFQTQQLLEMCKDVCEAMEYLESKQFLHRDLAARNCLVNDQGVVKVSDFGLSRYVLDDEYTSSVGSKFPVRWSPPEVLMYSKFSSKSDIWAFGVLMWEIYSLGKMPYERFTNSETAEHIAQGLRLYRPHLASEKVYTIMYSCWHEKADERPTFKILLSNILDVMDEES

With `CC(C)(C)c1noc(C(=O)NCc2ccc(-c3ccnc4[nH]c(-c5cnn(C6COC6)c5)nc34)cc2F)n1` [Example 128] the IC50 was < 100 nM.
